# Reference: PubChem BioAssay AID1963965 (Molecular Pharmacology Branch, DTP, NCI, 2024)
# System: 996289-038-R-J1-PDC spheroid viability
# Experiment: Anticancer human tumor 996289-038-R-J1-PDC patient-derived colon adenocarcinoma cell line growth inhibition [PI3K]
# Conditions: spheroids with HUVEC and MSC; for IC50: curve of first compound; for viability, T/C: stronger effect = lower value
# Summary of the method: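 Viability of mixed-cell spheroids was determined after exposure to pairwise combinations, one partner being inavolisib, alpelisib, duvelisib or copanlisib. Highest tested concentration matched clinical Cmax where known and 10 microM where not, descending in half-log steps.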
# [1] = second compound 0.00316 µM, first compound 0.0316 µM
# [2] = second compound 0.00316 µM, first compound 0.1 µM
# [3] = second compound 0.00316 µM, first compound 0.316 µM
# [4] = second compound 0.00316 µM, first compound 1 µM
# [5] = second compound 0.00316 µM, first compound 3.16 µM
# [6] = second compound 0.00316 µM, first compound 10 µM
# [7] = second compound 0.01 µM, first compound 0.0316 µM
# [8] = second compound 0.01 µM, first compound 0.1 µM
# [9] = second compound 0.01 µM, first compound 0.316 µM
# [10] = second compound 0.01 µM, first compound 1 µM
# [11] = second compound 0.01 µM, first compound 3.16 µM
# [12] = second compound 0.01 µM, first compound 10 µM
# [13] = second compound 0.0316 µM, first compound 0.0316 µM
# [14] = second compound 0.0316 µM, first compound 0.1 µM
# [15] = second compound 0.0316 µM, first compound 0.316 µM
# [16] = second compound 0.0316 µM, first compound 1 µM
# [17] = second compound 0.0316 µM, first compound 3.16 µM
# [18] = second compound 0.0316 µM, first compound 10 µM
# [19] = second compound 0.1 µM, first compound 0.0316 µM
# [20] = second compound 0.1 µM, first compound 0.1 µM
# [21] = second compound 0.1 µM, first compound 0.316 µM
# [22] = second compound 0.1 µM, first compound 1 µM
# [23] = second compound 0.1 µM, first compound 3.16 µM
# [24] = second compound 0.1 µM, first compound 10 µM
# [25] = second compound 0.316 µM, first compound 0.0316 µM
# [26] = second compound 0.316 µM, first compound 0.1 µM
# [27] = second compound 0.316 µM, first compound 0.316 µM
# [28] = second compound 0.316 µM, first compound 1 µM
# [29] = second compound 0.316 µM, first compound 3.16 µM
# [30] = second compound 0.316 µM, first compound 10 µM
# [31] = second compound 1 µM, first compound 0.0316 µM
# [32] = second compound 1 µM, first compound 0.1 µM
# [33] = second compound 1 µM, first compound 0.316 µM
# [34] = second compound 1 µM, first compound 1 µM
# [35] = second compound 1 µM, first compound 3.16 µM
# [36] = second compound 1 µM, first compound 10 µM
# 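Note: spheroids exposed to compounds for seven days before viability read.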
# 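Throughout, for viability, T/C: luminescence used as a proxy for viable cell amount; percent viability relative to DMSO vehicle control as 100%.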
smiles,measurement,setting,value
C=CC(=O)N1CCN(c2nc(=O)n(-c3c(C)ccnc3C(C)C)c3nc(-c4c(O)cccc4F)c(F)cc23)C(C)C1 (stereo not drawn) + CC(Nc1ccc2c(c1)OCCn1cc(N3C(=O)OCC3C(F)F)nc1-2)C(N)=O,IC50,second compound 0.00316 µM,> 10 µM
same,IC50,second compound 0.01 µM,> 10 µM
same,IC50,second compound 0.0316 µM,> 10 µM
same,IC50,second compound 0.1 µM,> 10 µM
same,IC50,second compound 0.316 µM,> 10 µM
same,IC50,second compound 1 µM,> 10 µM
same,"viability, T/C",[1],91.2%
same,"viability, T/C",[2],92.7%
same,"viability, T/C",[3],106%
same,"viability, T/C",[4],112%
same,"viability, T/C",[5],113%
same,"viability, T/C",[6],106%
same,"viability, T/C",[7],97.8%
same,"viability, T/C",[8],96.7%
same,"viability, T/C",[9],112%
same,"viability, T/C",[10],100%
same,"viability, T/C",[11],118%
same,"viability, T/C",[12],118%
same,"viability, T/C",[13],88.7%
same,"viability, T/C",[14],106%
same,"viability, T/C",[15],95.3%
same,"viability, T/C",[16],105%
same,"viability, T/C",[17],97.3%
same,"viability, T/C",[18],98.8%
same,"viability, T/C",[19],87.5%
same,"viability, T/C",[20],81.9%
same,"viability, T/C",[21],87.8%
same,"viability, T/C",[22],98.9%
same,"viability, T/C",[23],85.4%
same,"viability, T/C",[24],83%
same,"viability, T/C",[25],79.4%
same,"viability, T/C",[26],67.7%
same,"viability, T/C",[27],75.1%
same,"viability, T/C",[28],80.9%
same,"viability, T/C",[29],77.1%
same,"viability, T/C",[30],77.7%
same,"viability, T/C",[31],82.2%
same,"viability, T/C",[32],50.2%
same,"viability, T/C",[33],60.2%
same,"viability, T/C",[34],59.1%
same,"viability, T/C",[35],62.6%
same,"viability, T/C",[36],67.7%
CCN1CCN(Cc2ccc(Nc3ncc(F)c(-c4cc(F)c5nc(C)n(C(C)C)c5c4)n3)nc2)CC1 + CC(Nc1ccc2c(c1)OCCn1cc(N3C(=O)OCC3C(F)F)nc1-2)C(N)=O,IC50,second compound 0.00316 µM,> 1 µM
same,IC50,second compound 0.01 µM,> 1 µM
same,IC50,second compound 0.0316 µM,> 1 µM
same,IC50,second compound 0.1 µM,> 1 µM
same,IC50,second compound 0.316 µM,0.772 µM
same,IC50,second compound 1 µM,0.0538 µM
same,"viability, T/C","second compound 0.00316 µM, first compound 0.00316 µM",97.1%
same,"viability, T/C","second compound 0.00316 µM, first compound 0.01 µM",93.1%
same,"viability, T/C",[1],93.2%
same,"viability, T/C",[2],84.8%
same,"viability, T/C",[3],76.9%
same,"viability, T/C",[4],78.3%
same,"viability, T/C","second compound 0.01 µM, first compound 0.00316 µM",98.5%
same,"viability, T/C","second compound 0.01 µM, first compound 0.01 µM",98.9%
same,"viability, T/C",[7],83.2%
same,"viability, T/C",[8],75.8%
same,"viability, T/C",[9],82.9%
same,"viability, T/C",[10],82.8%
same,"viability, T/C","second compound 0.0316 µM, first compound 0.00316 µM",94.9%
same,"viability, T/C","second compound 0.0316 µM, first compound 0.01 µM",83.2%
same,"viability, T/C",[13],78.9%
same,"viability, T/C",[14],69.8%
same,"viability, T/C",[15],79.8%
same,"viability, T/C",[16],67.5%
same,"viability, T/C","second compound 0.1 µM, first compound 0.00316 µM",78.6%
same,"viability, T/C","second compound 0.1 µM, first compound 0.01 µM",75.1%
same,"viability, T/C",[19],74.7%
same,"viability, T/C",[20],66.1%
same,"viability, T/C",[21],61.3%
same,"viability, T/C",[22],65.8%
same,"viability, T/C","second compound 0.316 µM, first compound 0.00316 µM",71.3%
same,"viability, T/C","second compound 0.316 µM, first compound 0.01 µM",73.9%
same,"viability, T/C",[25],64.3%
same,"viability, T/C",[26],54.7%
same,"viability, T/C",[27],57.3%
same,"viability, T/C",[28],48.4%
same,"viability, T/C","second compound 1 µM, first compound 0.00316 µM",53.7%
same,"viability, T/C","second compound 1 µM, first compound 0.01 µM",53.2%
same,"viability, T/C",[31],52.6%
same,"viability, T/C",[32],47.4%
same,"viability, T/C",[33],46.4%
same,"viability, T/C",[34],45%
Cn1ncc(Cl)c1-c1cc(C(=O)NC(CN)Cc2cccc(F)c2)sc1Cl (stereo not drawn) + CC(Nc1ccc2c(c1)OCCn1cc(N3C(=O)OCC3C(F)F)nc1-2)C(N)=O,IC50,second compound 0.00316 µM,> 10 µM
same,IC50,second compound 0.01 µM,7.33 µM
same,IC50,second compound 0.0316 µM,4.62 µM
same,IC50,second compound 0.1 µM,1.84 µM
same,IC50,second compound 0.316 µM,1.83 µM
same,IC50,second compound 1 µM,0.352 µM
same,"viability, T/C",[1],83.3%
same,"viability, T/C",[2],82.9%
same,"viability, T/C",[3],84.3%
same,"viability, T/C",[4],80%
same,"viability, T/C",[5],60%
same,"viability, T/C",[6],54.5%
same,"viability, T/C",[7],111%
same,"viability, T/C",[8],97%
same,"viability, T/C",[9],83.8%
same,"viability, T/C",[10],73.7%
same,"viability, T/C",[11],58.6%
same,"viability, T/C",[12],46.5%
same,"viability, T/C",[13],87.2%
same,"viability, T/C",[14],84.2%
same,"viability, T/C",[15],76.6%
same,"viability, T/C",[16],64.8%
same,"viability, T/C",[17],61.3%
same,"viability, T/C",[18],35.5%
same,"viability, T/C",[19],77.8%
same,"viability, T/C",[20],80.2%
same,"viability, T/C",[21],63.9%
same,"viability, T/C",[22],56%
same,"viability, T/C",[23],46%
same,"viability, T/C",[24],33.6%
same,"viability, T/C",[25],66.9%
same,"viability, T/C",[26],59.6%
same,"viability, T/C",[27],75.7%
same,"viability, T/C",[28],55.3%
same,"viability, T/C",[29],43.2%
same,"viability, T/C",[30],28.9%
same,"viability, T/C",[31],53.5%
same,"viability, T/C",[32],52.6%
same,"viability, T/C",[33],52.6%
same,"viability, T/C",[34],43.9%
same,"viability, T/C",[35],38.4%
same,"viability, T/C",[36],25.8%
Cn1nccc1Nc1nccc(-c2ccn(C(CO)c3ccc(Cl)c(F)c3)c(=O)c2)n1 (stereo not drawn) + CC(Nc1ccc2c(c1)OCCn1cc(N3C(=O)OCC3C(F)F)nc1-2)C(N)=O,IC50,second compound 0.00316 µM,> 10 µM
same,IC50,second compound 0.01 µM,> 10 µM
same,IC50,second compound 0.0316 µM,9.77 µM
same,IC50,second compound 0.1 µM,9.01 µM
same,IC50,second compound 0.316 µM,4.82 µM
same,IC50,second compound 1 µM,2.25 µM
same,"viability, T/C",[1],104%
same,"viability, T/C",[2],98%
same,"viability, T/C",[3],117%
same,"viability, T/C",[4],106%
same,"viability, T/C",[5],94.4%
same,"viability, T/C",[6],58.4%
same,"viability, T/C",[7],104%
same,"viability, T/C",[8],95.3%
same,"viability, T/C",[9],105%
same,"viability, T/C",[10],103%
same,"viability, T/C",[11],70.8%
same,"viability, T/C",[12],53.4%
same,"viability, T/C",[13],98.9%
same,"viability, T/C",[14],110%
same,"viability, T/C",[15],86.8%
same,"viability, T/C",[16],93.6%
same,"viability, T/C",[17],67.8%
same,"viability, T/C",[18],50%
same,"viability, T/C",[19],87.9%
same,"viability, T/C",[20],89.6%
same,"viability, T/C",[21],97.2%
same,"viability, T/C",[22],81%
same,"viability, T/C",[23],78.7%
same,"viability, T/C",[24],46.8%
same,"viability, T/C",[25],79.5%
same,"viability, T/C",[26],74.5%
same,"viability, T/C",[27],61.4%
same,"viability, T/C",[28],67.6%
same,"viability, T/C",[29],58.2%
same,"viability, T/C",[30],39.5%
same,"viability, T/C",[31],56.2%
same,"viability, T/C",[32],64.4%
same,"viability, T/C",[33],53.7%
same,"viability, T/C",[34],73.3%
same,"viability, T/C",[35],45%
same,"viability, T/C",[36],30.2%
